Experimental data published in PubChem BioAssay (NCI).
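96-well plates; 48 h exposure; 5 concentrations. Endpoints by linear interpolation between flanking doses. Not reached: highest tested concentration assigned. At the GI50, growth is halved. TGI is the concentration that stops growth completely.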

Legend:
Assay in all cases: NCI anticancer screen, dose series, 48 h
SK-MEL-5 melanoma = tested on: SK-MEL-5 melanoma
A498 renal = tested on: A498 renal
HOP-62 NSCLC = tested on: HOP-62 NSCLC
OVCAR-3 ovarian = tested on: OVCAR-3 ovarian
TK-10 renal = tested on: TK-10 renal
OVCAR-4 ovarian = tested on: OVCAR-4 ovarian
K-562 leukemia = tested on: K-562 leukemia
MOLT-4 leukemia = tested on: MOLT-4 leukemia
RXF 393 renal = tested on: RXF 393 renal
SF-295 CNS = tested on: SF-295 CNS
HS 578T breast = tested on: HS 578T breast
HCC-2998 colon = tested on: HCC-2998 colon
NCI-H226 lung = tested on: NCI-H226 lung
OVCAR-8 ovarian = tested on: OVCAR-8 ovarian
UACC-257 melanoma = tested on: UACC-257 melanoma
HT29 colon = tested on: HT29 colon
NCI/ADR-RES ovarian = tested on: NCI/ADR-RES ovarian
DU-145 prostate = tested on: DU-145 prostate
UACC-62 melanoma = tested on: UACC-62 melanoma
SNB-19 CNS = tested on: SNB-19 CNS
HCT-15 colon = tested on: HCT-15 colon
NCI-H522 lung = tested on: NCI-H522 lung
ACHN renal = tested on: ACHN renal
NCI-H23 lung = tested on: NCI-H23 lung
T-47D breast = tested on: T-47D breast
U251 CNS = tested on: U251 CNS
UO-31 renal = tested on: UO-31 renal
HCT-116 colon = tested on: HCT-116 colon
SF-268 CNS = tested on: SF-268 CNS
BT-549 breast = tested on: BT-549 breast
MDA-MB-231 breast = tested on: MDA-MB-231 breast
HOP-92 NSCLC = tested on: HOP-92 NSCLC
KM12 colon = tested on: KM12 colon
M14 melanoma = tested on: M14 melanoma
SW-620 colon = tested on: SW-620 colon
A549 NSCLC = tested on: A549 NSCLC
MALME-3M melanoma = tested on: MALME-3M melanoma
MDA-MB-435 = tested on: MDA-MB-435
SR leukemia = tested on: SR leukemia
IGROV1 ovarian = tested on: IGROV1 ovarian
RPMI-8226 leukemia = tested on: RPMI-8226 leukemia
786-0 renal = tested on: 786-0 renal
SK-MEL-2 melanoma = tested on: SK-MEL-2 melanoma
PC-3 prostate = tested on: PC-3 prostate
SK-OV-3 ovarian = tested on: SK-OV-3 ovarian
CCRF-CEM leukemia = tested on: CCRF-CEM leukemia
SF-539 CNS = tested on: SF-539 CNS
HL-60(TB) leukemia = tested on: HL-60(TB) leukemia
SNB-75 CNS = tested on: SNB-75 CNS
CAKI-1 renal = tested on: CAKI-1 renal
SN12C renal = tested on: SN12C renal
MCF7 breast = tested on: MCF7 breast
EKVX NSCLC = tested on: EKVX NSCLC
LOX IMVI melanoma = tested on: LOX IMVI melanoma
SK-MEL-28 melanoma = tested on: SK-MEL-28 melanoma
COLO 205 colon = tested on: COLO 205 colon
OVCAR-5 ovarian = tested on: OVCAR-5 ovarian
NCI-H460 lung = tested on: NCI-H460 lung

O=C(Nc1ncc(Cc2cccc(C(F)(F)F)c2)s1)c1ccc2c(c1)OCCO2
GI50 (SK-MEL-5 melanoma): 281 nM
TGI (SK-MEL-5 melanoma): 2360 nM
GI50 (A498 renal): 48.4 nM
TGI (A498 renal): 442 nM
GI50 (HOP-62 NSCLC): 615 nM
TGI (HOP-62 NSCLC): > 40900 nM
GI50 (OVCAR-3 ovarian): 223 nM
TGI (OVCAR-3 ovarian): 629 nM
GI50 (TK-10 renal): 892 nM
TGI (TK-10 renal): > 39200 nM
GI50 (OVCAR-4 ovarian): 608 nM
TGI (OVCAR-4 ovarian): > 100000 nM
GI50 (K-562 leukemia): 159 nM
TGI (K-562 leukemia): > 100000 nM
GI50 (MOLT-4 leukemia): 670 nM
TGI (MOLT-4 leukemia): > 100000 nM
GI50 (RXF 393 renal): 232 nM
TGI (RXF 393 renal): 783 nM
GI50 (SF-295 CNS): 244 nM
TGI (SF-295 CNS): 1840 nM
GI50 (HS 578T breast): 306 nM
TGI (HS 578T breast): > 66400 nM
GI50 (HCC-2998 colon): 337 nM
TGI (HCC-2998 colon): 17500 nM
GI50 (NCI-H226 lung): 827 nM
GI50 (OVCAR-8 ovarian): 485 nM
TGI (OVCAR-8 ovarian): > 100000 nM
GI50 (UACC-257 melanoma): 5870 nM
TGI (UACC-257 melanoma): > 100000 nM
GI50 (HT29 colon): 498 nM
TGI (HT29 colon): > 35200 nM
GI50 (NCI/ADR-RES ovarian): 251 nM
TGI (NCI/ADR-RES ovarian): 6960 nM
GI50 (DU-145 prostate): 350 nM
TGI (DU-145 prostate): 14800 nM
GI50 (UACC-62 melanoma): 372 nM
TGI (UACC-62 melanoma): > 100000 nM
GI50 (SNB-19 CNS): 506 nM
TGI (SNB-19 CNS): > 68400 nM
GI50 (HCT-15 colon): 139 nM
TGI (HCT-15 colon): > 100000 nM
GI50 (NCI-H522 lung): 196 nM
GI50 (ACHN renal): 580 nM
TGI (ACHN renal): > 100000 nM
GI50 (NCI-H23 lung): 474 nM
TGI (NCI-H23 lung): > 57600 nM
GI50 (T-47D breast): 606 nM
TGI (T-47D breast): > 100000 nM
GI50 (U251 CNS): 385 nM
TGI (U251 CNS): > 48200 nM
GI50 (UO-31 renal): 1090 nM
TGI (UO-31 renal): > 100000 nM
GI50 (HCT-116 colon): 320 nM
TGI (HCT-116 colon): > 100000 nM
GI50 (SF-268 CNS): 1130 nM
TGI (SF-268 CNS): > 100000 nM
GI50 (BT-549 breast): 449 nM
TGI (BT-549 breast): > 100000 nM
GI50 (MDA-MB-231 breast): 445 nM
TGI (MDA-MB-231 breast): 29700 nM
GI50 (HOP-92 NSCLC): 2970 nM
TGI (HOP-92 NSCLC): > 72200 nM
GI50 (KM12 colon): 196 nM
TGI (KM12 colon): > 100000 nM
GI50 (M14 melanoma): 224 nM
TGI (M14 melanoma): > 48800 nM
GI50 (SW-620 colon): 352 nM
TGI (SW-620 colon): > 100000 nM
GI50 (A549 NSCLC): 451 nM
TGI (A549 NSCLC): > 100000 nM
GI50 (MALME-3M melanoma): 569 nM
TGI (MALME-3M melanoma): > 60900 nM
GI50 (MDA-MB-435): 35.2 nM
TGI (MDA-MB-435): 172 nM
GI50 (SR leukemia): 210 nM
TGI (SR leukemia): > 100000 nM
GI50 (IGROV1 ovarian): 400 nM
TGI (IGROV1 ovarian): > 100000 nM
GI50 (RPMI-8226 leukemia): 483 nM
TGI (RPMI-8226 leukemia): > 100000 nM
GI50 (786-0 renal): 576 nM
TGI (786-0 renal): > 100000 nM
GI50 (SK-MEL-2 melanoma): 943 nM
TGI (SK-MEL-2 melanoma): > 48600 nM
GI50 (PC-3 prostate): 341 nM
TGI (PC-3 prostate): > 100000 nM
GI50 (SK-OV-3 ovarian): 746 nM
TGI (SK-OV-3 ovarian): 46600 nM
GI50 (CCRF-CEM leukemia): 411 nM
TGI (CCRF-CEM leukemia): > 100000 nM
GI50 (SF-539 CNS): 251 nM
TGI (SF-539 CNS): 916 nM
GI50 (HL-60(TB) leukemia): 340 nM
TGI (HL-60(TB) leukemia): > 100000 nM
GI50 (SNB-75 CNS): 185 nM
TGI (SNB-75 CNS): 7170 nM
GI50 (CAKI-1 renal): 141 nM
TGI (CAKI-1 renal): > 45900 nM
GI50 (SN12C renal): 592 nM
TGI (SN12C renal): > 100000 nM
GI50 (MCF7 breast): 175 nM
TGI (MCF7 breast): > 100000 nM
GI50 (EKVX NSCLC): 602 nM
TGI (EKVX NSCLC): > 100000 nM
GI50 (LOX IMVI melanoma): 565 nM
TGI (LOX IMVI melanoma): > 100000 nM
GI50 (SK-MEL-28 melanoma): 1540 nM
TGI (SK-MEL-28 melanoma): > 100000 nM
GI50 (COLO 205 colon): 282 nM
TGI (COLO 205 colon): 1540 nM
GI50 (OVCAR-5 ovarian): 617 nM
TGI (OVCAR-5 ovarian): > 100000 nM
GI50 (NCI-H460 lung): 349 nM
TGI (NCI-H460 lung): > 38200 nM
